The test system of assay [1] is MGC-803. Put plainly: Antiproliferative activity against human MGC803 cells assessed as reduction in cell viability incubated for 48 hrs by MTT assay. The class given is functional, cell-based. As to conditions: MGC-803, 48 h. Background: Tetrazolium dyes change colour on reduction, which living cells bring about.
Assay [2] deals with L02. Put plainly: Cytotoxicity against human HL7702 cells assessed as reduction in cell viability incubated for 48 hrs by MTT assay. As to conditions: L02, 48 h. The class given is cell-based.
Assay [3] relates to HepG2. Put plainly: Antiproliferative activity against human HepG2 cells assessed as reduction in cell viability incubated for 48 hrs by MTT assay. The class given is functional, cell-based. As to conditions: HepG2, 48 h.
Assay [4] relates to NCI-H460. Put plainly: Antiproliferative activity against human NCI-H460 cells assessed as reduction in cell viability incubated for 48 hrs by MTT assay. It is filed as functional, cell-based. The note with it: NCI-H460, 48 h.
The test system of assay [5] is T-24. Put plainly: Antiproliferative activity against human T24 cells assessed as reduction in cell viability incubated for 48 hrs by MTT assay. The class given is functional, cell-based. The note with it: T-24, 48 h.
Assay [6] has as its system MGC-803. Put plainly: Antitumor activity against human MGC803 cells xenografted in BALB/C mouse assessed as tumor growth inhibition at 6 mg/kg, ip administered every other day for 2 weeks measured during compound dosing relative to control. It is filed as functional. The note with it: MGC-803, ip, 336 h, read-out: TGI. On the technique in general: Xenograft models place foreign cells or tissue in a host animal.

Assay [7] has as its system DNA. The assay is described as follows: Binding affinity to Escherichia coli supercoiled pBR322 DNA assessed as DNA intercalation at 5 uM after 3 hrs by ethidium bromide staining-based agarose gel electrophoresis analysis. It is filed as nucleic-acid assay.

Structures are written as SMILES. Activity calls are given as the source filed them. No cut-off for these calls is given here.

In the case of `CN(C)CCNc1c2c(nc3ccc(Cl)cc13)-c1ccccc1C2`, the IC50 (usually the concentration needed to halve the response being measured) in assay [1] was 3.49 µM; in assay [2] it was 3.6 µM; in assay [3], 6.71 µM; in assay [4] it was 4.96 µM; in assay [5], 1.74 µM.

Turning to `COc1cc2c(cc1OC)-c1nc3ccc(Cl)cc3c(NCCCN3CCOCC3)c1C2`, the IC50 in assay [1] was found to be 4.13 µM; in assay [2], 3.8 µM; in assay [3] it was 7.6 µM; in assay [4], 2.4 µM; in assay [5], 2.23 µM.

In the case of `CN(C)CCCNc1c2c(nc3ccccc13)-c1ccccc1C2`, the IC50 is 0.95 µM in assay [1]; 0.91 µM in assay [2]; 2.6 µM in assay [3]; 1.66 µM in assay [4]; 0.31 µM in assay [5].

As to `COc1cc2c(cc1OC)-c1nc3ccc(Cl)cc3c(NCCCN(C)C)c1C2`, the IC50 in assay [1] was 1.58 µM; in assay [2], 2.6 µM; in assay [3] it was 4.18 µM; in assay [4] it was 1.95 µM; in assay [5], 2.09 µM.

As for `COc1cc2c(cc1OC)-c1nc3ccccc3c(NCCCN3CCOCC3)c1C2`, the concentration for half-maximal inhibition (IC50) in assay [1] amounted to 2.52 µM; in assay [2], 4.97 µM; in assay [3] it was 3.94 µM; in assay [4] it was 5 µM; in assay [5] it was 2.77 µM.

As to `COc1cc2c(cc1OC)-c1nc3ccc(C)cc3c(NCCCN3CCOCC3)c1C2`, the IC50 in assay [1] came to 3.5 µM; in assay [2], 7.72 µM; in assay [3] it was 7.46 µM; in assay [4], 5.64 µM; in assay [5], 4.62 µM.

Take `CN(C)CCNc1c2c(nc3ccccc13)-c1ccccc1C2`: the IC50 was 0.93 µM in assay [1]; 1.31 µM in assay [2]; 2.31 µM in assay [3]; 1.23 µM in assay [4]; 0.61 µM in assay [5].

As to `COc1cc2c(cc1OC)-c1nc3ccc(C)cc3c(NCCCN(C)C)c1C2`, the IC50 in assay [1] amounted to 5.08 µM; in assay [2] it was 4.94 µM; in assay [3], 12 µM; in assay [4] it was 5.52 µM; in assay [5], 4.64 µM.

Turning to `Brc1ccc2nc3c(c(NCCCN4CCOCC4)c2c1)Cc1ccccc1-3`, the IC50 in assay [1] was 7.5 µM; in assay [2] it was 5.71 µM; in assay [3], 6.32 µM; in assay [4] it was 8.57 µM; in assay [5], 9.41 µM.

On to `CC[C@@]1(O)C(=O)OCc2c1cc1n(c2=O)Cc2cc3ccccc3nc2-1` [CAMPTOTHECIN], for which the IC50 in assay [1] stood at 4.27 µM; in assay [2], 2.15 µM; in assay [3], 5.69 µM; in assay [4] it was 5.37 µM; in assay [5], 3.09 µM. In addition, the inhibition in vivo at 6 mg/kg in assay [6] worked out at 62.3%.

Take `COc1cc2c(cc1OC)-c1nc3ccccc3c(NCCN(C)C)c1C2`: the IC50 is 1.36 µM in assay [1]; 2.06 µM in assay [2]; 3.14 µM in assay [3]; 3.1 µM in assay [4]; 1.82 µM in assay [5].

For `COc1cc2c(cc1OC)-c1nc3ccc(Br)cc3c(NCCCN(C)C)c1C2`, the 50% inhibitory concentration (IC50) in assay [1] was 3.66 µM; in assay [2], 7.06 µM; in assay [3] it was 6.38 µM; in assay [4], 5.73 µM; in assay [5] it was 4.97 µM.

`c1ccc2c(c1)Cc1c-2nc2ccccc2c1NCCCN1CCOCC1`: the IC50 stood at 1.95 µM in assay [1]; 4.73 µM in assay [2]; 4.48 µM in assay [3]; 4.6 µM in assay [4]; 1.43 µM in assay [5].

Regarding `CN(C)CCNc1c2c(nc3ccc(Br)cc13)-c1ccccc1C2`, the IC50 turned out to be 2.98 µM in assay [1]; 6.43 µM in assay [2]; 4.18 µM in assay [3]; 2.8 µM in assay [4]; 2.21 µM in assay [5].

Turning to `COc1cc2c(cc1OC)-c1nc3ccc(Br)cc3c(NCCN(C)C)c1C2`, the IC50 stood at 2.73 µM in assay [1]; 6.95 µM in assay [2]; 1.61 µM in assay [3]; 2.83 µM in assay [4]; 1.53 µM in assay [5].

Turning to `COc1cc2c(cc1OC)-c1nc3ccccc3c(NCCCN(C)C)c1C2`, the IC50 came to 5.17 µM in assay [1]; 4.35 µM in assay [2]; 4.6 µM in assay [3]; 3.92 µM in assay [4]; 2.47 µM in assay [5].

Consider `COc1cc2c(cc1OC)-c1nc3ccc(F)cc3c(NCCCN3CCOCC3)c1C2`, for which the IC50 came to 3.7 µM in assay [1]; 3.71 µM in assay [2]; 8.74 µM in assay [3]; 6.42 µM in assay [4]; 3.74 µM in assay [5].

`CC[n+]1c(-c2ccccc2)c2cc(N)ccc2c2ccc(N)cc21`: the result in assay [7] was Active.

For `COc1cc2c(cc1OC)-c1nc3ccc(Cl)cc3c(NCCN(C)C)c1C2`, the IC50 in assay [1] stood at 2.22 µM; in assay [2], 2.56 µM; in assay [3], 3.12 µM; in assay [4], 2.55 µM; in assay [5], 2.21 µM.

Take `CN(C)CCCNc1c2c(nc3ccc(Br)cc13)-c1ccccc1C2`: the IC50 was determined as 1.8 µM in assay [1]; 1.64 µM in assay [2]; 3.12 µM in assay [3]; 2.02 µM in assay [4]; 1.36 µM in assay [5].

`COc1cc2c(cc1OC)-c1nc3ccc(C)cc3c(NCCN(C)C)c1C2`: the half-maximal inhibitory concentration (IC50) was 2.46 µM in assay [1]; 3.01 µM in assay [2]; 2.57 µM in assay [3]; 4.99 µM in assay [4]; 2.39 µM in assay [5].

Take `COc1cc2c(cc1OC)-c1nc3ccc(Br)cc3c(NCCCN3CCOCC3)c1C2`: the IC50 turned out to be 3.38 µM in assay [1]; 5.02 µM in assay [2]; 3.97 µM in assay [3]; 4.25 µM in assay [4]; 2.64 µM in assay [5].

As to `Cc1ccc2nc3c(c(NCCCN4CCOCC4)c2c1)Cc1ccccc1-3`, the IC50 stood at 1.42 µM in assay [1]; 1.67 µM in assay [2]; 1.88 µM in assay [3]; 0.89 µM in assay [4]; 0.58 µM in assay [5].

As for `COc1cc2c(cc1OC)-c1nc3ccc(F)cc3c(NCCCN(C)C)c1C2`, the 50% inhibitory concentration (IC50) in assay [1] amounted to 2.11 µM; in assay [2], 3.07 µM; in assay [3] it was 5.23 µM; in assay [4], 3.52 µM; in assay [5], 2.86 µM.

On to `COc1cc2c(cc1OC)-c1nc3ccc(F)cc3c(NCCN(C)C)c1C2`, for which the IC50 in assay [1] is 2.35 µM; in assay [2], 4.38 µM; in assay [3] it was 1.77 µM; in assay [4], 5.73 µM; in assay [5], 2.2 µM.

Turning to `Clc1ccc2nc3c(c(NCCCN4CCOCC4)c2c1)Cc1ccccc1-3`, the IC50 was found to be 6.89 µM in assay [1]; 7.12 µM in assay [2]; 5.9 µM in assay [3]; 5.21 µM in assay [4]; 4.32 µM in assay [5].

For `Fc1ccc2nc3c(c(NCCCN4CCOCC4)c2c1)Cc1ccccc1-3`, the IC50 in assay [1] amounted to 2.79 µM; in assay [2], 3.05 µM; in assay [3] it was 4.46 µM; in assay [4], 6.66 µM; in assay [5] it was 1.9 µM.

On to `CN(C)CCNc1c2c(nc3ccc(F)cc13)-c1ccccc1C2`, for which the half-maximal inhibitory concentration (IC50) was found to be 1.78 µM in assay [1]; 3.22 µM in assay [2]; 2.59 µM in assay [3]; 2.89 µM in assay [4]; 1.15 µM in assay [5].

Turning to `Cc1ccc2nc3c(c(NCCCN(C)C)c2c1)Cc1ccccc1-3`, the IC50 in assay [1] is 0.86 µM; in assay [2], 0.58 µM; in assay [3], 1.19 µM; in assay [4], 1.16 µM; in assay [5] it was 0.84 µM.

With `CN(C)CCCNc1c2c(nc3ccc(Cl)cc13)-c1ccccc1C2`, the IC50 in assay [1] amounted to 1.11 µM; in assay [2], 2.3 µM; in assay [3] it was 2.14 µM; in assay [4], 2.31 µM; in assay [5], 0.91 µM.

As to `Cc1ccc2nc3c(c(NCCN(C)C)c2c1)Cc1ccccc1-3`, the IC50 in assay [1] is 0.92 µM; in assay [2], 1.15 µM; in assay [3], 1.71 µM; in assay [4] it was 1.03 µM; in assay [5], 0.31 µM.

The record behind these values is ChEMBL document CHEMBL4346660, “Cryptolepine and aromathecin based mimics as potent G-quadruplex-binding, DNA-cleavage and anticancer agents: Design, synthesis and DNA targeting-induced apoptosis” (Eur J Med Chem, 2019).
